Key:
Experiment in all cases: combination Emax (second highest fraction inhibited in the dose matrix, 72 h); higher = more inhibition; extreme values may be limits of the assay
[1] = tested on: L-1236 (Hodgkin's Lymphoma)
Summary of the method: (§1)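 After 24 hours at 37°C and 5% CO2 in 1536-well plates, cells in DMEM/F12 or RPMI plus 10% FBS received two-drug dose matrices for 72 hours. Viability came from CellTiter-Glo 2.0 luminescence and was scaled as inhibition, anchored at 0 by vehicle wells and at 1 by blank wells. Combination Emax is taken as the second-highest inhibition in the matrix, and Bliss excess as the observed combination effect less EA + EB − EA·EB, with EA and EB the single-agent effects.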

[2] = tested on: PC-3_[JPC-3] (Lung Adenocarcinoma)
Summary of the method: as §1

[3] = tested on: NCI-H2342 (Lung Adenocarcinoma)
Summary of the method: as §1

NB12 (Neuroblastoma) = tested on: NB12 (Neuroblastoma)
Summary of the method: as §1

[4] = tested on: SHP-77 (Small Cell Lung Carcinoma)
Summary of the method: as §1

[5] = tested on: TE-8 (Esophageal Squamous Cell Carcinoma)
Summary of the method: as §1

[6] = tested on: MKN45 (Gastric Carcinoma)
Summary of the method: as §1

[7] = tested on: PANC-03-27 (Pancreatic Carcinoma)
Summary of the method: as §1

[8] = tested on: REH (B-Lymphoblastic Leukemia)
Summary of the method: as §1

[9] = tested on: CAL-62 (Thyroid Gland Carcinoma)
Summary of the method: as §1

[10] = tested on: SK-PN-DW (Other Solid Carcinomas)
Summary of the method: as §1

[11] = tested on: HSC-39 (Gastric Carcinoma)
Summary of the method: as §1

[12] = tested on: MFE-280 (Endometrial Carcinoma)
Summary of the method: as §1

[13] = tested on: LK-2 (Squamous Cell Lung Carcinoma)
Summary of the method: as §1

[14] = tested on: RKN (Other Solid Carcinomas)
Summary of the method: as §1

[15] = tested on: COLO-680N (Esophageal Squamous Cell Carcinoma)
Summary of the method: as §1

IST-MES1 (Mesothelioma) = tested on: IST-MES1 (Mesothelioma)
Summary of the method: as §1

[16] = tested on: PSN1 (Pancreatic Carcinoma)
Summary of the method: as §1

[17] = tested on: RCM-1 (Colorectal Carcinoma)
Summary of the method: as §1

SK-MEL-2 (Melanoma) = tested on: SK-MEL-2 (Melanoma)
Summary of the method: as §1

SMILES | combination Emax [1] | combination Emax [2] | combination Emax [3] | combination Emax (NB12 (Neuroblastoma)) | combination Emax [4] | combination Emax [5] | combination Emax [6] | combination Emax [7] | combination Emax [8] | combination Emax [9] | combination Emax [10] | combination Emax [11] | combination Emax [12] | combination Emax [13] | combination Emax [14] | combination Emax [15] | combination Emax (IST-MES1 (Mesothelioma)) | combination Emax [16] | combination Emax [17] | combination Emax (SK-MEL-2 (Melanoma))
Cc1c2c(nn1C)CSCc1cc(n(C)n1)CSc1cc(c3ccccc3c1)OCCCc1c(C(=O)O)n(C)c3c-2c(Cl)ccc13 [AZD5991] + CC(=O)O[C@H]1C(=O)[C@@]2(C)[C@H]([C@H](OC(=O)c3ccccc3)[C@]3(O)C[C@H](OC(=O)[C@H](O)[C@@H](NC(=O)c4ccccc4)c4ccccc4)C(C)=C1C3(C)C)[C@]1(OC(C)=O)CO[C@@H]1C[C@@H]2O [Paclitaxel] (first compound max 1 µM, 7x7, partner max 3 µM) | 0.846 | 0.58 | 0.988 | 0.91 | 0.971 | 0.702 | 0.709 | 0.688 | 1 | 0.81 | 0.952 | 1 | 0.574 | 0.986 | 0.839 | 0.476 | 0.651 | 0.746 | 0.342 | 1
Cc1c2c(nn1C)CSCc1cc(n(C)n1)CSc1cc(c3ccccc3c1)OCCCc1c(C(=O)O)n(C)c3c-2c(Cl)ccc13 [AZD5991] + CS(=O)(=O)CCNCc1ccc(-c2ccc3ncnc(Nc4ccc(OCc5cccc(F)c5)c(Cl)c4)c3c2)o1 [Lapatinib] (first compound max 1 µM, 7x7, partner max 10 µM) | 0.798 | 0.833 | 0.34 | 0.464 | 0.42 | 0.409 | 0.245 | 0.558 | 0.862 | 0.237 | 0.956 | 1 | 0.347 | 0.186 | 0.205 | 0.291 | 0.615 | 0.316 | 0.409 | 0.955
Cc1c2c(nn1C)CSCc1cc(n(C)n1)CSc1cc(c3ccccc3c1)OCCCc1c(C(=O)O)n(C)c3c-2c(Cl)ccc13 [AZD5991] + Nc1ccn([C@@H]2O[C@H](CO)[C@@H](O)C2(F)F)c(=O)n1 [Gemcitabine] (first compound max 1 µM, 7x7, partner max 0.3 µM) | 0.806 | 0.58 | 0.636 | 0.77 | 0.595 | 0.574 | 0.64 | 0.549 | 0.984 | 0.751 | 0.815 | 1 | 0.468 | 0.674 | 0.107 | 0.365 | 0.742 | 0.846 | 0.392 | 0.925
C[C@@H]1COCCN1c1cc(C2([S@](C)(=N)=O)CC2)nc(-c2ccnc3[nH]ccc23)n1 [AZD6738] + Nc1ccn([C@@H]2O[C@H](CO)[C@@H](O)C2(F)F)c(=O)n1 [Gemcitabine] (first compound max 10 µM, 7x7, partner max 0.3 µM) | 0.918 | 0.665 | 0.85 | 0.801 | 0.931 | 0.83 | 0.756 | 0.737 | 0.994 | 0.871 | 0.957 | 1 | 0.864 | 0.918 | 0.788 | 0.529 | 0.798 | 0.893 | 0.744 | 0.454
Cc1cc2ncnn2cc1Nc1ncc2c(n1)n(C1CCOCC1)c(=O)n2C [AZD7648] + COc1cc([C@@H]2c3cc4c(cc3[C@@H](O[C@@H]3O[C@@H]5CO[C@@H](C)O[C@H]5[C@H](O)[C@H]3O)[C@H]3COC(=O)[C@H]23)OCO4)cc(OC)c1O [Etoposide] (first compound max 10 µM, 7x7, partner max 10 µM) | 0.845 | 0.415 | 0.569 | 0.695 | 0.546 | 0.602 | 0.582 | 0.619 | 0.976 | 0.829 | 0.918 | 0.854 | 0.889 | 0.784 | 0.598 | 0.404 | 0.685 | 0.834 | 0.515 | 0.166
C[C@@H](Nc1cc(F)cc(F)c1)c1cc(C(=O)N(C)C)cc2c(=O)cc(N3CCOCC3)oc12 [AZD8186] + C1CN(CCC1(C(=O)N[C@@H](CCO)C2=CC=C(C=C2)Cl)N)C3=NC=NC4=C3C=CN4 [AZD5363] (first compound max 10 µM, 7x7, partner max 10 µM) | 0.722 | 0.295 | 0.286 | 0.419 | 0.275 | 0.455 | 0.455 | 0.315 | 0.452 | 0.165 | 0.575 | 0.603 | 0.546 | 0.177 | 0.328 | 0.245 | 0.267 | 0.357 | 0.233 | 0.113
C[C@@H](Nc1cc(F)cc(F)c1)c1cc(C(=O)N(C)C)cc2c(=O)cc(N3CCOCC3)oc12 [AZD8186] + CC(=O)c1c(C)c2cnc(Nc3ccc(N4CCNCC4)cn3)nc2n(C2CCCC2)c1=O [Palbociclib] (first compound max 10 µM, 7x7, partner max 10 µM) | 0.697 | 0.369 | 0.337 | 0.403 | 0.337 | 0.502 | 0.534 | 0.513 | 0.625 | 0.36 | 0.644 | 0.813 | 0.518 | 0.237 | 0.292 | 0.419 | 0.454 | 0.558 | 0.335 | 0
C[C@@H](Oc1cc(-c2cnn(C3CCNCC3)c2)cnc1N)c1c(Cl)ccc(F)c1Cl [Crizotinib] + CC1=C(C(=CC=C1)Cl)NC(=O)C2=CN=C(S2)NC3=CC(=NC(=N3)C)N4CCN(CC4)CCO [Dasatinib] (first compound max 10 µM, 7x7, partner max 2 µM) | 0.905 | 0.809 | 0.37 | 0.766 | 0.259 | 0.838 | 0.854 | 0.887 | 0.752 | 0.677 | 0.763 | 1 | 0.661 | 0.765 | 0.567 | 0.869 | 0.938 | 0.777 | 0.61 | 0.0969
C[C@@H](Oc1cc(-c2cnn(C3CCNCC3)c2)cnc1N)c1c(Cl)ccc(F)c1Cl [Crizotinib] + Cn1cnc2c(F)c(Nc3ccc(Br)cc3Cl)c(C(=O)NOCCO)cc21 [Selumetinib] (first compound max 10 µM, 7x7, partner max 10 µM) | 0.975 | 0.242 | 0.285 | 0.79 | 0.411 | 0.631 | 0.902 | 0.543 | 0.721 | 0.564 | 0.739 | 0.975 | 0.28 | 0.749 | 0.48 | 0.319 | 0.864 | 0.963 | 0.761 | 0.881
CS(=O)(=O)CCNCc1ccc(-c2ccc3ncnc(Nc4ccc(OCc5cccc(F)c5)c(Cl)c4)c3c2)o1 [Lapatinib] + Cn1cnc2c(F)c(Nc3ccc(Br)cc3Cl)c(C(=O)NOCCO)cc21 [Selumetinib] (first compound max 10 µM, 7x7, partner max 10 µM) | 0.712 | 0.653 | 0.257 | 0.354 | 0.387 | 0.521 | 0.635 | 0.812 | 0.237 | 0.477 | 0.556 | 0.99 | 0.274 | 0.485 | 0.369 | 0.408 | 0.55 | 0.748 | 0.754 | 0.793
O=C(c1cc(Cc2n[nH]c(=O)c3ccccc23)ccc1F)N1CCN(C(=O)C2CC2)CC1 [Olaparib] + CC1(C)CCC(CN2CCN(c3ccc(C(=O)NS(=O)(=O)c4ccc(NCC5CCOCC5)c([N+](=O)[O-])c4)c(Oc4cnc5[nH]ccc5c4)c3)CC2)=C(c2ccc(Cl)cc2)C1 [Venetoclax] (first compound max 10 µM, 7x7, partner max 1 µM) | 0.37 | 0.153 | 0.158 | 0.922 | 0.258 | 0.137 | 0.201 | 0.12 | 0.966 | 0.0638 | 0.301 | 0.205 | 0.169 | 0.347 | 0.119 | 0.0836 | 0.283 | 0.192 | 0.0674 | 0.162
O=C(c1cc(Cc2n[nH]c(=O)c3ccccc23)ccc1F)N1CCN(C(=O)C2CC2)CC1 [Olaparib] + CN(CC[C@H](CSC1=CC=CC=C1)NC2=C(C=C(C=C2)S(=O)(=O)NC(=O)C3=CC=C(C=C3)N4CCC(CC4)[C@H](C5=CC=CC=C5C6=CC=C(C=C6)Cl)O)S(=O)(=O)C(F)(F)F)CCO [AZD4320] (first compound max 10 µM, 7x7, partner max 1 µM) | 0.994 | 0.138 | 0.178 | 0.997 | 0.315 | 0.175 | 0.164 | 0.266 | 0.986 | 0.16 | 0.378 | 0.268 | 0.598 | 0.573 | 0.149 | 0.11 | 0.211 | 0.21 | 0.17 | 0.234

From the supplement of paper PMC11061612
